Source: ChEMBL document CHEMBL5113431, “Synthesis and initial in vitro evaluation of PSMA-targeting ligands with a modified aromatic moiety at the lysine ε-nitrogen atom” (Bioorg Med Chem Lett, 2022)

System: not listed separately
Assay: Drug uptake in PSMA overexpressing human LNCaP cells at 4 to 40 nM by flow cytometry
Assay type: ADME, cell-based
Conditions: 0.04 µM, dose 4-40 nM; call rule not given here

Row | Drug uptake | Compound
1 | Active | CN1/C(=C/C=C/C=C/C2=[N+](CCCCCC(=O)NCc3cn(CCCNC(=O)[C@H](Cc4ccccc4)NC(=O)[C@H](Cc4ccccc4)NC(=O)CCC(=O)NCCCCCC(=O)N(CCCC[C@H](NC(=O)N[C@@H](CCC(=O)O)C(=O)O)C(=O)O)Cc4ccccc4[N+](=O)[O-])nn3)c3ccc(S(=O)(=O)[O-])cc3C2(C)C)C(C)(C)c2cc(S(=O)(=O)O)ccc21
2 | Active | CN1/C(=C/C=C/C=C/C2=[N+](CCCCCC(=O)NCc3cn(CCCNC(=O)[C@H](Cc4ccccc4)NC(=O)[C@H](Cc4ccccc4)NC(=O)CCC(=O)NCCCCCC(=O)N(CCCC[C@H](NC(=O)N[C@@H](CCC(=O)O)C(=O)O)C(=O)O)Cc4ccc(C(=O)O)cc4)nn3)c3ccc(S(=O)(=O)[O-])cc3C2(C)C)C(C)(C)c2cc(S(=O)(=O)O)ccc21
3 | Active | CN1/C(=C/C=C/C=C/C2=[N+](CCCCCC(=O)NCc3cn(CCCNC(=O)[C@H](Cc4ccc(O)cc4)NC(=O)[C@H](Cc4ccccc4)NC(=O)CCC(=O)NCCCCCC(=O)N(CCCC[C@H](NC(=O)N[C@@H](CCC(=O)O)C(=O)O)C(=O)O)Cc4cccc(Cl)c4)nn3)c3ccc(S(=O)(=O)[O-])cc3C2(C)C)C(C)(C)c2cc(S(=O)(=O)O)ccc21

Target: Glutamate carboxypeptidase 2 (Homo sapiens, UniProt Q04609)
Sequence (Q04609 whole entry): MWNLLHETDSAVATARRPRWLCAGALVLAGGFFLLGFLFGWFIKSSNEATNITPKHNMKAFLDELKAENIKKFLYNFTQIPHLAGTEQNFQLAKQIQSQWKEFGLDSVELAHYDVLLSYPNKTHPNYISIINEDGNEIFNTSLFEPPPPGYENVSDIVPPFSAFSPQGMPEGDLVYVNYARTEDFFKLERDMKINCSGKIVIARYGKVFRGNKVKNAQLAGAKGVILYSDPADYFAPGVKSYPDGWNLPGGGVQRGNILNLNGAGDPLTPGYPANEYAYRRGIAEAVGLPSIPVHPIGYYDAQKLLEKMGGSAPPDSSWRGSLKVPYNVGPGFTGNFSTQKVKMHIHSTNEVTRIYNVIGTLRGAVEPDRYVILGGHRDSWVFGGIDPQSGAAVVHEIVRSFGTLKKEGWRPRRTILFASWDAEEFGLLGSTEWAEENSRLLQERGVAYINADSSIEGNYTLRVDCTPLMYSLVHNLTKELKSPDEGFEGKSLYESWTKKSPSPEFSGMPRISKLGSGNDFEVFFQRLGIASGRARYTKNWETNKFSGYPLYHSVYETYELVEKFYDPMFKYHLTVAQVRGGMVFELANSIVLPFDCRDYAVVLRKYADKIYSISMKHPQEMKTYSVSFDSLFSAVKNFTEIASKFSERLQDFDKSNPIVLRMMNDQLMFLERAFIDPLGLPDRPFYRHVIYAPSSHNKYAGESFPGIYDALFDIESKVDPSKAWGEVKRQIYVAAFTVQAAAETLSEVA
Assay: Inhibition of PSMA in human LNCaP cell extracts using NAAG as substrate by amplex red reagent based assay
Assay type: cell-free
Conditions: not given

Row | Compound | IC50 [nM]
4 | COc1ccc(CN(CCCC[C@H](NC(=O)N[C@@H](CCC(=O)O)C(=O)O)C(=O)O)C(=O)CCCCCNC(=O)CCC(=O)N[C@@H](Cc2ccccc2)C(=O)N[C@@H](Cc2ccccc2)C(=O)NCCCN=[N+]=[N-])cc1OC | 88
5 | COc1ccccc1CN(CCCC[C@H](NC(=O)N[C@@H](CCC(=O)O)C(=O)O)C(=O)O)C(=O)CCCCCNC(=O)CCC(=O)N[C@@H](Cc1ccccc1)C(=O)N[C@@H](Cc1ccccc1)C(=O)NCCCN=[N+]=[N-] | 38
6 | [N-]=[N+]=NCCCNC(=O)[C@H](Cc1ccc(O)cc1)NC(=O)[C@H](Cc1ccccc1)NC(=O)CCC(=O)NCCCCCC(=O)N(CCCC[C@H](NC(=O)N[C@@H](CCC(=O)O)C(=O)O)C(=O)O)Cc1ccccc1[N+](=O)[O-] | 101
7 | COc1ccc(CN(CCCC[C@H](NC(=O)N[C@@H](CCC(=O)O)C(=O)O)C(=O)O)C(=O)CCCCCNC(=O)CCC(=O)N[C@@H](Cc2ccccc2)C(=O)N[C@@H](Cc2ccccc2)C(=O)NCCCN=[N+]=[N-])cc1 | 112
8 | [N-]=[N+]=NCCCNC(=O)[C@H](Cc1ccccc1)NC(=O)[C@H](Cc1ccccc1)NC(=O)CCC(=O)NCCCCCC(=O)N(CCCC[C@H](NC(=O)N[C@@H](CCC(=O)O)C(=O)O)C(=O)O)Cc1ccc(O)cc1 | 24
9 | [N-]=[N+]=NCCCNC(=O)[C@H](Cc1ccccc1)NC(=O)[C@H](Cc1ccccc1)NC(=O)CCC(=O)NCCCCCC(=O)N(CCCC[C@H](NC(=O)N[C@@H](CCC(=O)O)C(=O)O)C(=O)O)Cc1cccc([N+](=O)[O-])c1 | 23
10 | [N-]=[N+]=NCCCNC(=O)[C@H](Cc1ccccc1)NC(=O)[C@H](Cc1ccccc1)NC(=O)CCC(=O)NCCCCCC(=O)N(CCCC[C@H](NC(=O)N[C@@H](CCC(=O)O)C(=O)O)C(=O)O)Cc1ccc([N+](=O)[O-])cc1 | 35
11 | CCOc1ccc(CN(CCCC[C@H](NC(=O)N[C@@H](CCC(=O)O)C(=O)O)C(=O)O)C(=O)CCCCCNC(=O)CCC(=O)N[C@@H](Cc2ccccc2)C(=O)N[C@@H](Cc2ccccc2)C(=O)NCCCN=[N+]=[N-])cc1 | 51

More lines, now with the values ahead:

Row | IC50 [nM] | Compound
12 | 23 | COc1ccc(CN(CCCC[C@H](NC(=O)N[C@@H](CCC(=O)O)C(=O)O)C(=O)O)C(=O)CCCCCNC(=O)CCC(=O)N[C@@H](Cc2ccccc2)C(=O)N[C@@H](Cc2ccccc2)C(=O)NCCCN=[N+]=[N-])c(OC)c1
13 | 19 | [N-]=[N+]=NCCCNC(=O)[C@H](Cc1ccc(O)cc1)NC(=O)[C@H](Cc1ccccc1)NC(=O)CCC(=O)NCCCCCC(=O)N(CCCC[C@H](NC(=O)N[C@@H](CCC(=O)O)C(=O)O)C(=O)O)Cc1ccc(C(=O)O)cc1
14 | 16 | [N-]=[N+]=NCCCNC(=O)[C@H](Cc1ccccc1)NC(=O)[C@H](Cc1ccccc1)NC(=O)CCC(=O)NCCCCCC(=O)N(CCCC[C@H](NC(=O)N[C@@H](CCC(=O)O)C(=O)O)C(=O)O)Cc1ccccc1[N+](=O)[O-]
15 | 7 | [N-]=[N+]=NCCCNC(=O)[C@H](Cc1ccccc1)NC(=O)[C@H](Cc1ccccc1)NC(=O)CCC(=O)NCCCCCC(=O)N(CCCC[C@H](NC(=O)N[C@@H](CCC(=O)O)C(=O)O)C(=O)O)Cc1ccc(C(=O)O)cc1
16 | 2.1 | [N-]=[N+]=NCCCNC(=O)[C@H](Cc1ccc(O)c([N+](=O)[O-])c1)NC(=O)[C@H](Cc1ccccc1)NC(=O)CCC(=O)NCCCCCC(=O)N(CCCC[C@H](NC(=O)N[C@@H](CCC(=O)O)C(=O)O)C(=O)O)Cc1ccc(C(=O)O)cc1
17 | 1.5 | [N-]=[N+]=NCCCNC(=O)[C@H](Cc1ccc(O)c([N+](=O)[O-])c1)NC(=O)[C@H](Cc1ccccc1)NC(=O)CCC(=O)NCCCCCC(=O)N(CCCC[C@H](NC(=O)N[C@@H](CCC(=O)O)C(=O)O)C(=O)O)Cc1cccc(Cl)c1
